Experimental data as given in patent publication US10287530B2, “Surfactants based on monounsaturated fatty alcohol derivatives” (priority 2013, dated 2019).
Where two headings read alike, the source gives them in different places.

What was measured:
[1] = assay type: physicochemical; settings: for Emulsion stability, mL separation, 1 h / Emulsion stability, mL separation, 24 h: 342 ppm water; for Rating: overall, versus control
Procedure: Surfactant candidates for water soluble herbicide applications are examined as a replacement for the anionic, nonionic, or anionic/nonionic blend portion and compared to a known industry adjuvant standard for use in paraquat, a water soluble herbicide concentrate formulation. A standard dilution test is conducted whereby the concentrates are diluted in water to determine if solubility is complete.
A known industry paraquat adjuvant (2.8 g) is added and vigorously mixed for 30 s. Deionized water (8.07 g) is added, and mixing resumes for 30 s. […] The cylinder is stoppered and inverted ten times. Solubility is recorded as complete or incomplete. Cylinders are allowed to stand and the amount (in mL) and type of separation are recorded after 30 min., 1 h, 2 h, and 24 h. Results of the solubility testing appear in Table 4 below.
An eight to ten mole alkyl phenol ethoxylate surfactant (0.7 g) is added and vigorously mixed for 30 s. Test sample (0.7 g) is added and mixing resumes for 30 s. Deionized water (4.03 g) is added, and mixing resumes for 30 s.
Test sample (0.7 g) is added and vigorously mixed for 30 s. Sodium linear alkylbenzene sulfonate (“NaLAS,” 0.7 g) is added and mixing resumes for 30 s. Deionized water (4.03 g) is added, and mixing resumes for 30 s.
Test sample (1.4 g) is added and vigorously mixed for 30 s. Deionized water (4.03 g) is added, and mixing resumes for 30 s.

[2] = Agricultural dispersant screening: sedimentation of milled pesticide powder; assay type: physicochemical; design: key to Sedimentation results at 1 h: Trace of sediment=“Tr”; settings: for Rating: overall, versus DF-200 and DF-500 controls
Procedure: The potential of a composition for use as an agricultural dispersant is evaluated by its performance with five typical pesticide active ingredients: atrazine, chlorothalonil, diuron, imidacloprid and tebuconazole. The performance of each dispersant sample is evaluated in comparison with two standard Stepsperse® dispersants: DF-200 and DF-500 (products of Stepan Company).
A screening sample is prepared as shown below for each active. Wetting agents, clays, and various additives are included or excluded from the screening process as needed. The weight percent of pesticide (“technical material”) in the formulation depends on the desired active level of the final product. The active level chosen is similar to other products on the market. If this is a new active ingredient, then the highest active level is used.
Samples are evaluated in waters of varying hardness, in this case 342 ppm and 1000 ppm. The initial evaluations are performed at ambient temperature. Other temperatures can be evaluated as desired. The 342 ppm water is made by dissolving anhydrous calcium chloride (0.304 g) and magnesium chloride hexahydrate (0.139 g) in deionized water and diluting to 1 L. The 1000 ppm water is made similarly using 0.89 g of calcium chloride and 0.40 g of magnesium chloride hexahydrate.
Technical material (60-92.5 wt. %), anionic wetting agent (0.5-1.0 wt. %), silica (0.5-1.0 wt. %), and clay (balance) are blended in a suitable container. The blend is milled to a particle size of at least a d(90) of <20μ using a hammer and air/jet mills as needed. Test dispersant (0.1 g) is added to test water (50 mL) in a beaker and stirred 1-2 min. Milled powder containing the technical material (1.0 g) is added to the dispersant solution and stirred until all powder is wet (2-5 min.). The mixture is transferred to a 100-mL cylinder using additional test water for rinsing the beaker and is then diluted to volume. The cylinder is stoppered and inverted ten times, then allowed to stand. Visual inspection is performed at t=0.5, 1.0, 2.0, and 24 hours, and the amount of sediment observed (in mL) is recorded. Trace of sediment=“Tr” (see Table 5).

[3] = Surfactant phase behavior study by cross-polarized microscopy; assay type: physicochemical; settings: in deionized water, room temperature (20-22° C.); boundaries are estimates (±5%)
Procedure: Phase behavior is observed using an Olympus BH-2 cross-polarized microscope at 100-400× and room temperature (20° C. to 22° C.). The monounsaturated C11 alcohol derivatives (sulfates, ethoxylate sulfates, and alcohol ethoxylates) are compared with their saturated analogs. Samples are prepared by diluting the most concentrated product gradually with deionized water. When the surfactant concentration approaches a phase transition, the concentration is varied at 2-4% intervals to estimate the phase boundary. The actives level reported in Table 6 for each phase boundary is within ±5% of the true boundary. Samples are loaded between a microscope slide and cover glass and are allowed to equilibrate before observation. Microscopic texture is analyzed and used to determine the phase. For some samples, an AR 2000 rheometer (TA Instruments) is used to measure viscosity at 25° C. to further verify phase behavior.

[4] = Interfacial tension (IFT) against light mineral oil, synergy study with cationic surfactant; assay type: physicochemical; settings: for IFT at 0.1% actives/mineral oil (blend): 1:1 molar blend of the anionic with Ammonyx Cetac 30, 0.1% actives, light mineral oil; for Calculated IFT (no synergy): expected IFT of the 1:1 molar blend with Ammonyx Cetac 30 by ideal mixing; for Synergy?: measured versus expected IFT of the 1:1 molar blend with Ammonyx Cetac 30; for IFT at 0.1% actives (single component): 0.1 wt. % active against light mineral oil, ambient temperature
Procedure: The surfactant blends tested are prepared at a 1:1 molar ratio without any pH adjustment. Dilutions are made using deionized water to the desired actives level. Actives amounts are wt. % unless indicated otherwise. Appearances are reported at ambient temperature for samples prepared within the last 24 h.
Interfacial tension (IFT) of all the individual components and their blends is measured at 0.1 wt. % active against light mineral oil at ambient temperature using a Kruss DSA-20 pendent drop tensiometer. The drop is blown out at 600 μL/min., and a video is recorded for 100 s. The video frames taken during the last 15 s are analyzed and used for the IFT calculation.
For blends having an IFT less than 0.5 mN/m, the IFT is determined using a spinning drop tensiometer (University of Texas 500) at 25° C. Oil density=0.877 g/cm^3 and surfactant density=0.997 g/cm^3 are used for the IFT calculation.
The expected IFT for a blend is calculated based on ideal mixing (non-synergistic) using the active component in each blend. The equation used is given as: Expected IFT=X*IFTa+(1−X)*IFTb where X is the actives % of component A, IFTa is the IFT of component A, and IFTb is the IFT of component B. If the measured IFT for a blend is less than the expected IFT, then the blend is synergistic. If the measured IFT for a blend is higher than the expected IFT, the system is antagonistic.

[5] = Adjuvant (anionic/nonionic) test sample
[6] = Chlorothalonil, test water 342 ppm
[7] = Chlorothalonil, test water 1000 ppm
[8] = Imidacloprid, test water 342 ppm
[9] = Imidacloprid, test water 1000 ppm
[10] = Tebuconazole, test water 342 ppm
[11] = Tebuconazole, test water 1000 ppm

| Substance | Emulsion stability, mL separation, 1 h [1, 5] [mL] | Emulsion stability, mL separation, 24 h [1, 5] [mL] | Emulsion stability, mL separation, 1 h ([1]; Anionic test sample) [mL] | Emulsion stability, mL separation, 24 h ([1]; Anionic test sample) [mL] | Emulsion stability, mL separation, 1 h ([1]; Nonionic test sample) [mL] | Emulsion stability, mL separation, 24 h ([1]; Nonionic test sample) [mL] | Rating [1] | Sedimentation results at 1 h ([2]; Atrazine, test water 342 ppm) | Sedimentation results at 24 h ([2]; Atrazine, test water 342 ppm) [mL] | Sedimentation results at 1 h ([2]; Atrazine, test water 1000 ppm) [mL] | Sedimentation results at 24 h ([2]; Atrazine, test water 1000 ppm) [mL] | Sedimentation results at 1 h [2, 6] | Sedimentation results at 24 h [2, 6] [mL] | Sedimentation results at 1 h [2, 7] [mL] | Sedimentation results at 24 h [2, 7] [mL] | Sedimentation results at 1 h ([2]; Diuron, test water 342 ppm) [mL] | Sedimentation results at 24 h ([2]; Diuron, test water 342 ppm) [mL] | Sedimentation results at 1 h ([2]; Diuron, test water 1000 ppm) [mL] | Sedimentation results at 24 h ([2]; Diuron, test water 1000 ppm) [mL] | Sedimentation results at 1 h [2, 8] [mL] | further results |
| --- | --- | --- | --- | --- | --- | --- | --- | --- | --- | --- | --- | --- | --- | --- | --- | --- | --- | --- | --- | --- | --- |
| 1-Undecanol, 1EO Ether Sulfate, Sodium Salt [Sat. C11 alcohol 1EO Na sulfate] | 0 | 0.2 | 0 | 0 | 0.2 | 0.5 | good | Tr | 1 | 0.5 | 1 | 0.5 mL | 1 | 0.5 | 2 | 0.5 | 1 | 1 | 2 | 1 | Sedimentation results at 24 h [2, 8]: 2 mL; Sedimentation results at 1 h [2, 9]: 2.5 mL; Sedimentation results at 24 h [2, 9]: 2 mL; Sedimentation results at 1 h [2, 10]: Tr; Sedimentation results at 24 h [2, 10]: 0.5 mL; Sedimentation results at 1 h [2, 11]: 5 mL; Sedimentation results at 24 h [2, 11]: 3 mL; Rating [2]: equal; Estimated Phase Region as a Function of % Actives Level: Hexagonal [3]: 36-58 % actives; Estimated Phase Region as a Function of % Actives Level: Isotropic Clear [3]: 0-36 % actives; Estimated Phase Region as a Function of % Actives Level: Lamellar [3]: 58-72 % actives; Estimated Phase Region as a Function of % Actives Level: Solid/gum/paste [3]: 72-100 % actives; IFT at 0.1% actives/mineral oil (blend) [4]: 0.23 mN/m; Calculated IFT (no synergy) [4]: 6.44 mN/m; Synergy? [4]: very high; IFT at 0.1% actives (single component) [4]: 12.52 mN/m |
| Undecylenic Alcohol, 1EO Ether Sulfate, Sodium Salt [Unsat. C11 alcohol 1EO Na sulfate] | 0 | 0.5 | 0 | 0 | 0.2 | 0.25 | good | Tr | 1 | 0.5 | 1 | Tr | 1 | 0.5 | 1 | 0.5 | 1 | 1 | 2 | 3 | Sedimentation results at 24 h [2, 8]: 4 mL; Sedimentation results at 1 h [2, 9]: 3, 3 mL; Sedimentation results at 24 h [2, 9]: 3, 3 mL; Sedimentation results at 1 h [2, 10]: Tr; Sedimentation results at 24 h [2, 10]: 2 mL; Sedimentation observation (flock) [2, 11]: flocked; Rating [2]: equal; Estimated Phase Region as a Function of % Actives Level: Isotropic Clear [3]: 0-64 % actives; Estimated Phase Region as a Function of % Actives Level: Solid/gum/paste [3]: 74-100 % actives; Estimated Phase Region as a Function of % Actives Level: Solid/isotropic [3]: 64-74 % actives; IFT at 0.1% actives/mineral oil (blend) [4]: 0.13 mN/m; Calculated IFT (no synergy) [4]: 3.27 mN/m; Synergy? [4]: very high; IFT at 0.1% actives (single component) [4]: 6.18 mN/m |
